{
  "source": "paper PMC9959817",
  "about": "“Flow-Based Fmoc-SPPS Preparation and SAR Study of Cathelicidin-PY Reveals Selective Antimicrobial Activity” (Molecules, 2023)",
  "key": {"S. aureus (ATCC 29213)": {"system": "S. aureus (ATCC 29213)", "experiment": "microbe, parasite or virus in culture", "format": "cell-based, Staphylococcus aureus", "conditions": "ATCC 29213; read-out: Minimum Inhibitory Concentration", "excerpt": "(§1) As we were primarily interested in the clinical potential of cathelicidin-PY (1) and its analogues 2–9, cation-adjusted Mueller-Hinton broth (CAMHB) was implemented during our in vitro antimicrobial screening towards bacteria. However, non-cation adjusted Mueller Hinton broth (MHB) was also implemented to evaluate the cation sensitivity of these AMPs. In each medium, compounds 1–9 were subjected to minimum inhibitory concentration (MIC) assays with E. coli (ATCC 25922), P. aeruginosa (SVB-B9), and S. aureus (ATCC 29213), in accordance with CLSI microbroth dilution protocols (Table 1). It is noteworthy, however, that the initial report of cathelicidin-PY’s isolation documented MIC assays performed in Luria Broth (LB). Furthermore, antifungal activity towards C. albicans was investigated.\nStaphylococcus aureus ATCC 29213, Pseudomonas aeruginosa (SVB-B9) (type strain), and Escherichia coli ATCC 25,922 were grown in either non-cation-adjusted or cation-adjusted Mueller Hinton (MH) broth at 37 °C with shaking (200 rpm). MIC assays were performed in technical triplicate in accordance with the CLSI-recommended protocol. All assays were performed independently on three occasions, with the reported MIC defined as the lowest concentration for which agreement was observed consistently for all replicates."}, "Pseudomonas aeruginosa": {"system": "Pseudomonas aeruginosa", "conditions": "isolation report, assays in Luria Broth (LB); cited from earlier work", "excerpt": "(§2) Furthermore, these have shown promising anti-inflammatory and specific immune modulatory capabilities in immunocytes, as well as antiviral activity against human immunodeficiency virus (HIV), influenza A virus (I ..."}, "Candida albicans": {"system": "Candida albicans", "conditions": "isolation report; cited from earlier work", "excerpt": "as §2"}, "Escherichia coli": {"system": "Escherichia coli", "conditions": "isolation report, assays in Luria Broth (LB); cited from earlier work", "excerpt": "as §2"}, "Staphylococcus aureus": {"system": "Staphylococcus aureus", "conditions": "isolation report, assays in Luria Broth (LB); cited from earlier work", "excerpt": "as §2"}, "C. albicans (SC5314)": {"system": "C. albicans (SC5314)", "experiment": "microbe, parasite or virus in culture", "format": "cell-based, Candida albicans", "conditions": "SC5314; read-out: Minimum Inhibitory Concentration", "excerpt": "as §1\nAntimicrobial susceptibility of Candida albicans SC5314 (type strain) was assessed by broth microdilution in RPMI 1640 media in accordance with the CLSI recommended protocols. All assays were performed independently on three occasions, with the reported MIC defined as the lowest concentration for which agreement was observed consistently for all replicates."}},
  "note": "Where a SMILES comes first, the peptide text is derived from it. Bridges are numbered along the chain shown (N, C = ends).",
  "data": [
    {"smiles": "CC[C@H](C)[C@H](NC(=O)[C@H](Cc1c[nH]cn1)NC(=O)[C@H](CO)NC(=O)[C@@H](NC(=O)[C@@H](NC(=O)[C@@H](NC(=O)[C@@H](NC(=O)[C@H](CCCNC(=N)N)NC(=O)[C@H](CC(C)C)NC(=O)[C@H](CCCCN)NC(=O)[C@H](CCC(=O)O)NC(=O)[C@H](CCCCN)NC(=O)[C@H](CC(C)C)NC(=O)[C@H](CCCCN)NC(=O)[C@@H]1CSSC[C@H](NC(=O)[C@H](CCCCN)NC(=O)[C@@H](N)CCCNC(=N)N)C(=O)N[C@@H](CC(N)=O)C(=O)N[C@@H](Cc2ccccc2)C(=O)N[C@@H](CC(C)C)C(=O)N1)[C@@H](C)O)C(C)C)[C@@H](C)CC)[C@@H](C)O)C(=O)N[C@@H](CC(=O)O)C(=O)N[C@@H](CCCCN)C(=O)N[C@H](C(=O)N[C@@H](CC(C)C)C(=O)N[C@@H](CCCNC(=N)N)C(=O)N1CCC[C@H]1C(=O)N[C@@H](CCC(N)=O)C(=O)NCC(=O)O)C(C)C", "note": "[Compound 1, Cathelicidin-PY] (H-RKCNFLCKLKEKLRTVITSHIDKVLRPQG-OH; disulfide 3-7)", "values": [
      {"measurement": "MIC", "setting": "S. aureus (ATCC 29213)", "result": ">64", "unit": "µM"},
      {"measurement": "MIC", "setting": "Pseudomonas aeruginosa", "result": 5.48, "unit": "µM"},
      {"measurement": "MIC", "setting": "Candida albicans", "result": 1.37, "unit": "µM"},
      {"measurement": "MIC", "setting": "Escherichia coli", "result": 1.37, "unit": "µM"},
      {"measurement": "MIC", "setting": "Staphylococcus aureus", "result": 2.74, "unit": "µM"},
      {"measurement": "MIC", "setting": "C. albicans (SC5314)", "result": ">64", "unit": "µM"}
    ]}
  ]
}
